# Laboratory results taken from patent publication US10376598B2, “Targeted therapeutics” (Madrigal Pharmaceuticals, Inc., priority 2013, dated 2019).
# Like-named read-outs stand apart in the source and are kept apart here.
# Key:
# HER2 [1] = assay: HER2 degradation in BT-474 cells (Method 1, Western blot); assay type: cell-based, human; settings: 0.5 μM, overnight
# Protocol: […]. The resulting supernatant used as the cytosol fractions is dissolved with sample buffer for SDS-PAGE and run on a SDS-PAGE gel, blotted onto a nitrocellulose membrane by using semi-dry transfer. Non-specific binding to nitrocellulose is blocked with 5% skim milk in TBS with 0.5% Tween at room temperature for 1 hour, then probed with anti-HER2/ErB2 mAb (rabbit IgG, #2242, Cell Signaling) and anti-Tubulin (T9026, Sigma) as housekeeping control protein. HRP-conjugated goat anti-rabbit IgG (H+L) and HRP-conjugated horse anti-mouse IgG (H+L) are used as secondary Ab (#7074, #7076, Cell Signaling) and LumiGLO reagent, 20× Peroxide (#7003, Cell Signaling) is used for visualization. The Hsp90 client protein HER2 is degraded when cells are treated with Hsp90-targeting moieties or SDC-TRAPs of the invention.
# p38α MAPK = p38α MAPK (Homo sapiens, UniProt Q16539); settings: cited from earlier work
# Sequence of p38α MAPK (Q16539 whole entry, canonical isoform): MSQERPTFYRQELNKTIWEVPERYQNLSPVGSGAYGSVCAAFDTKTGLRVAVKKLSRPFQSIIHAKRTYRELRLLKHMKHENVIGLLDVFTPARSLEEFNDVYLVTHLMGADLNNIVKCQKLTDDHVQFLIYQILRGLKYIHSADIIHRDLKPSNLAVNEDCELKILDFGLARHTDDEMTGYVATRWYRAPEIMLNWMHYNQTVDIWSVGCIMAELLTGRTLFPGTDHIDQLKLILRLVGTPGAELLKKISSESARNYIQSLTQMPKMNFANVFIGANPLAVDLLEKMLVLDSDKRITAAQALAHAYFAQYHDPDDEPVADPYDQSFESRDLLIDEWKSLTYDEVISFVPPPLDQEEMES
# β isoform of p38 MAPK = β isoform of p38 MAPK (Homo sapiens, UniProt Q15759); settings: in vitro; cited from earlier work
# Sequence of β isoform of p38 MAPK (Q15759 whole entry, canonical isoform): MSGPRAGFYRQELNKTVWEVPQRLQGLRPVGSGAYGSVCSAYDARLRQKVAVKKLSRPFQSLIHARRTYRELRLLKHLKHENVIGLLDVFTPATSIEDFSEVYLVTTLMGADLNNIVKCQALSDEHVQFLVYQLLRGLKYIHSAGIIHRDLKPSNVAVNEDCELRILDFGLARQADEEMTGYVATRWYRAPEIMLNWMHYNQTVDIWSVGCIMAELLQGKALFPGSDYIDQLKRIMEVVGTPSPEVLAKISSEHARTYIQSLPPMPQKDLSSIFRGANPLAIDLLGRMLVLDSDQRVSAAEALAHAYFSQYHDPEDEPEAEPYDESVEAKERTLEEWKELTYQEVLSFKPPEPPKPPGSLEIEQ
# [2] = test system: phosphorylation of MK2 (Thr334); settings: TNFα-stimulated HeLa cells; cited from earlier work
# [3] = test system: phosphorylation of MK2 (Thr334); settings: anisomycin-induced mouse RAW264.7 macrophages; cited from earlier work
# TNFα secretion = settings: LPS/IFNγ-stimulated macrophages; cited from earlier work
# phospho-MK2 = settings: cited from earlier work
# SW1990 = settings: read-out: IC50 cell proliferation; cited from earlier work
# [4] = test system: SW1990 human pancreas orthotopic tumor; settings: in vivo; cited from earlier work
# JAK2V617F = biological target: T1, JAK2V617F (Homo sapiens, UniProt O60674, V617F); settings: Ba/F3 cells; read-out: IC50 JAK2V617F-driven signaling; cited from earlier work
# T1 construct: host or cells: Ba/F3
# T1 sequence (O60674 whole entry V617F): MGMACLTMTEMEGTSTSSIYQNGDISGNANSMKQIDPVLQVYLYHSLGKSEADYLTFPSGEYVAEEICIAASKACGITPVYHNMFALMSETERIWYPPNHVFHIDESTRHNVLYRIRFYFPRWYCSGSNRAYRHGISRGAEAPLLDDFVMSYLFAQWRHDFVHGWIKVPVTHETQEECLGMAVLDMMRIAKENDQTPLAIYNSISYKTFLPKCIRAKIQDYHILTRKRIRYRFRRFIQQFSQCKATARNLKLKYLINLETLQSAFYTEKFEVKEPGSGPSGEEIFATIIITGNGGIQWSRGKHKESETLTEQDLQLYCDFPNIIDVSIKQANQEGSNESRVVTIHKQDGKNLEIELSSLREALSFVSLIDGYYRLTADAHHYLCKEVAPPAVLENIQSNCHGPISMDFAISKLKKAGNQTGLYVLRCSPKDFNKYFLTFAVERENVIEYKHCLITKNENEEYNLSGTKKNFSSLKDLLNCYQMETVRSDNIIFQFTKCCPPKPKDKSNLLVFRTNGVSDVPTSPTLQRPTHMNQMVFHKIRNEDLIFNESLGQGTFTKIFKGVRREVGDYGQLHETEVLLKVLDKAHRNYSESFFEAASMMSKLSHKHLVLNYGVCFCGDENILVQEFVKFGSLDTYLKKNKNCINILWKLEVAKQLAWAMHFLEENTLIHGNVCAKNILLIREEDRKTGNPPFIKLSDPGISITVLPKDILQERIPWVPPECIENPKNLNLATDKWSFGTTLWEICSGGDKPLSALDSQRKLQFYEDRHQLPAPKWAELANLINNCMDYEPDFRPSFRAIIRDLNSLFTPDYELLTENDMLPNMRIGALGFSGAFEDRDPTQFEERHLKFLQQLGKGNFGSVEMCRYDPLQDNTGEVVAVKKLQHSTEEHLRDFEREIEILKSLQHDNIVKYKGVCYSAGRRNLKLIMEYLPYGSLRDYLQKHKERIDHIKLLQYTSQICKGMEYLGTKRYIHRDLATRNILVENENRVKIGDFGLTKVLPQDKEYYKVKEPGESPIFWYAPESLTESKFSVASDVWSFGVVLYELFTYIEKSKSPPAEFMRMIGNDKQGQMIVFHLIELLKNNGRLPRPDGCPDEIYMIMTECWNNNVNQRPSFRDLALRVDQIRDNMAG
# wild-type JAK2 [5] = biological target: T2, wild-type JAK2 (Homo sapiens, UniProt O60674); settings: read-out: IC50 interleukin-3-stimulated wild-type JAK2-mediated signaling; cited from earlier work
# T2 sequence (O60674 whole entry, species assumed): as the sequence (O60674 whole entry V617F) above, with F617V counted along it
# wild-type JAK2 [6] = biological target: T2, wild-type JAK2; settings: read-out: IC50 interleukin-3-stimulated wild-type JAK2-mediated cell proliferation; cited from earlier work
# [7] = test system: Ba/F3-JAK2V617F-GFP ascitic tumor cells; settings: cited from earlier work
# [8] = test system: Ba/F3-JAK2V617F-GFP tumor burden; settings: cited from earlier work
# [9] = in vivo; cited from earlier work
# [10] = test system: FGF-over VEGF-mediated target signaling; settings: in mice; cited from earlier work
# [11] = Tissue distribution of ganetespib in female CD-1 nu/nu mice bearing RERF human NSCLC xenografts; assay type: in vivo
# From the text: Tissue Distribution of Ganetespib in Female CD-1 Nu/Nu Mice Bearing RERF Human NSCLC Xenografts
# To confirm the distribution of ganetespib in blood, livers, kidneys, brains, hearts, lungs and tumors after IV administration of ganetespib to female CD-1 nu/nu mice bearing RERF human NSCLC xenografts, and to examine metabolic profiles of ganetespib in plasma, red blood cells, and above tissues.
# Animals: female CD-1 nu/nu mice bearing RERF human NSCLC xenografts (N=3/group)
# Formulation: 10% DMSO, 18% Cremophor RH40, 3.6% dextrose solution (DRD)
# Bleeding time points: 5 min, 6, 24 hr
# Collected tissues: blood (plasma and red blood cells (RBC)), liver, kidneys, brain, heart, lung, tumor
# Protein precipitation: 50 μL of 10 times diluted plasma or RBC+150 μL ACN (10 mM NH4OAc), vortexed and centrifuged at 10000 rpm for 8 min; 150 μL supernatant+150 μL water (10 mM NH4OAc)
# Protein precipitation: 100 μL homogenized tissue (1:3 tissue: PBS buffer)+100 μL ACN (10 mM NH4OAc), vortexed and centrifuged at 10000 rpm for 8 min
# Column: Agilent Zorbax Eclipse XDB-C18, 4.6×150 mm, 5 μm
# Mobile phase: A: water containing 10 mM NH4OAc; B: 95% ACN containing 10 mM NH4OAc
# Gradient: 95/5 A/B to 5/95 A/B in 10 min, total run time 15 min
# Column: Phenomenex Synergi, 2.1×50 mm, 4 μm
# Mobile phase: A: water containing 0.1% HCOOH; B: ACN containing 0.1% HCOOH
# Gradient: 60/40 A/B to 5/95 A/B in 0.5 min, total run time 4 min
# HER2 [12] = assay: in vitro HER2 assays; assay type: cell-based
# From the text: This example illustrates how a HER2 degradation assay may be used as a test to determine and select Hsp90-targeting moieties suitable for use in SDC-TRAPs of the invention, and further illustrates the ability of SDC-TRAPs to target cells preferentially expressing Hsp90. Such a test may further be used to determine the Hsp90 binding ability of SDC-TRAPs of the invention, as well as through competitive binding assays and cell-based Hsp90 client protein degradation assays known in the art.
# BT-474 cells are plated in the interior 60 wells of a 96 well black clear bottom plate (20,000 cells/well) in DMEM medium, with DMEM media in the surrounding 36 wells, and incubated at 37° C. with 5% CO2 overnight. On the second day, concentration response curve source plates are produced (10 point, 3-fold dilution of compounds in DMSO) followed by a 1:30 dilution in an intermediate dilution plate containing DMEM. Compound is transferred from the intermediate plate to the cell plate at a dilution of 1:10. The cells are then incubated at 37° C. with 5% CO2 for 24 hours.
# Cells are then fixed in 4% phosphate-buffered paraformaldehyde for 30 minutes at room temperature and then permeabilized by washing five times with 0.1% Triton X-100 in PBS for 5 minutes at room temperature on a shaker. […] The raw data is normalized to DRAQS and the HER2 EC50 is calculated using XLfit™. […]
compound,measurement,setting,value
C=CCNC1=C2C[C@@H](C)C[C@H](OC)[C@H](O)[C@@H](C)/C=C(\C)[C@H](OC(N)=O)[C@@H](OC)/C=C\C=C(/C)C(=O)NC(=CC1=O)C2=O [17-AAG],degradation of HER2,HER2 [1],partial degradation of HER2
"CC(C)(C)Cn1c(N)nc2ccc(-c3[nH]c(C(C)(C)C)nc3-c3ccc(F)cc3)nc21 [LY2228820, 5-[2-tert-Butyl-4-(4-fluorophenyl)-1H-imidazol-5-yl]-3-(2,2-dimethylpropyl)-3H-imidazo[4,5-b]pyridin-2-amine dimethanesulfonate]",IC50,"p38α MAPK; in vitro, read-out: IC50 α isoform of p38 MAPK",5.3 nM
same,selectivity for p38α MAPK versus 179 other kinases tested,p38α MAPK; including p38δ and γ isoforms,> 1000 fold
same,IC50,β isoform of p38 MAPK,3.2 nM
same,IC50,[2],8.1 nM
same,IC50,[3],35.3 nM
same,IC50,TNFα secretion,6.3 nM
same,TMED70 phospho-MK2 inhibition in tumors,phospho-MK2; mice transplanted with B16-F10 melanomas,19.4 mg/kg
same,duration of significant target inhibition,phospho-MK2; single 10 mg/kg oral dose,4 to 8 h
same,inhibition of phospho-MK2,phospho-MK2; single 10 mg/kg oral dose,> 40%
"COc1cccc(OCCCN)c1-c1cc(Nc2cnc(C#N)cn2)n[nH]1 [LY2606368, 5-((5-(2-(3-aminopropoxy)-6-methoxyphenyl)-1H-pyrazol-3-yl)amino)pyrazine-2-carbonitrile]",IC50,SW1990,1.5 nM
same,"inhibition of metastasis to lymph node, spleen, and intestine",[4],100%
same,inhibition of primary tumor growth,[4],over 92%
"Cc1cc(Nc2cc(CN3CCOCC3)c3nc(C)c(Cc4ccc(Cl)cc4F)n3n2)n[nH]1 [LY2784544, 3-(4-Chloro-2-fluorobenzyl)-2-methyl-N-(5-methyl-1H-pyrazol-3-yl)-8-(morpholin-4-ylmethyl)imidazo[1,2-b]pyridazin-6-amine]",IC50,JAK2V617F,20 nM
same,IC50,wild-type JAK2 [5],1180 nM
same,IC50,wild-type JAK2 [6],1310 nM
same,TED50 inhibition of STATS phosphorylation,[7],12.7 mg/kg
same,"effect on erythroid progenitors, reticulocytes or platelets",[8]; in vivo,no effect
same,TED50 reduction of Ba/F3-JAK2V617F-GFP tumor burden,[8]; twice daily,13.7 mg/kg
"CCN1CCN(Cc2ccc(Nc3ncc(F)c(-c4cc(F)c5nc(C)n(C(C)C)c5c4)n3)nc2)CC1.CS(=O)(=O)O [LY2835219, 2-Pyrimidinamine, N-[5-[(4-ethyl-1-piperazinyl)methyl]-2-pyridinyl]-5-fluoro-4-[4-fluoro-2-methyl-1-(1-methylethyl)-1H-benzimidazol-6-yl]-, methanesulfonate (1:1)]",percent of dose in brain,[9],0.5-3.9%
"C[C@@H](Oc1ccc2[nH]nc(/C=C/c3cnn(CCO)c3)c2c1)c1c(Cl)cncc1Cl [LY2874455, (R)-(E)-2-(4-(2-(5-(1-(3,5-Dichloropyridin-4-yl)ethoxy)-1H-indazol-3-yl)vinyl)-1H-pyrazol-1-yl) ethanol]",in vitro and in vivo selectivity on inhibition of FGF-over VEGF-mediated target signaling,[10],6- to 9 fold
CC(C)c1cc(-c2nnc(O)n2-c2ccc3c(ccn3C)c2)c(O)cc1O [ganetespib],concentration of ganetespib in tumor,[11]; 5 min after 50 mg/kg IV,2350 nM
same,mean concentration in plasma relative to RBC,[11]; 5 min time point,about 10 times
same,Concentration of ganetespib in plasma,[11]; 24 hr after 50 mg/kg IV,>LLOQ
same,IC50,HER2 [12],~30 nM
